Where two headings read alike, the source gives them in different places. Marks after values point to notes of the source that are not given here.
Assays:
B16-F10 lung metastases = assay: B16-F10 melanoma lung metastasis model (tail vein injection) in Kunming mice; assay type: in vivo; settings: DTIC 2.5 mg/kg
From the text: DMEM, fetal bovine serum, PBS, trypsin-EDTA, DMSO, Tris-HCl buffer with pH 7.6 for rinsing, 0.05% trypsin, rLZ-8, and DTIC.
After the mice were put to death, lungs of the dead mice were dissected out and the number of black spots on surfaces of the lungs, formed by an aggregation of metastasis cell, was counted, so as to calculate the inhibition rate of the drug against the growth of the lung metastasis as: inhibition rate=(an average metastasis number of the negative contrast group−an average metastasis number of the drug administrated group)/the average metastasis number of the negative contrast group×100%. A time and the number of the dead mouse in each experiment group were recorded in detail, especially during administrating the drug continuously, until the negative contrast group was completely dead; and then, the survival states of the mice in the experiment groups and the contrast groups were analyzed. A survival rate was calculated according to the number of the dead mice in the other groups when all the mice of the negative contrast group were dead, based on a formula that survival rate=(a total number of the mice−the number of the dead mice)/the total number of the mice.

metastatic melanoma = settings: immune therapy; cited from earlier work
[1] = DTIC 2.5 mg/kg tail i.v., administration for 28 days
[2] = DTIC 2.5 mg/kg, administration for 56 days
[3] = DTIC 2.5 mg/kg, dead mice/animal number

Procedure for B16F10 orthotopic tumor: The mice were transplanted with a melanoma cells line B16-F10.
The mice melanoma cells B16-F10 were cultured in the DMEM containing 10% fetal bovine serum, at 37° C. in the CO2 thermostat incubator. 200 μl of B16-F10 cell suspension (containing 1×10^7 cells) was slowly subcutaneously injected into a dorsal-ventral side of the mouse through 1 ml syringe, so as to establish a model of mice transplanted with tumors. […] The rLZ-8 was injected once per day; the DTIC was continuously tail-intravenously injected for 5 days and injected for a second time after 3 weeks. During the experiment, living states of the mice were observed; the mice were weighed once every 7 days; blood samples were taken from tail veins of the mice every 2 weeks; volumes of the tumors, subcutaneously injected into the mice, were measured every 2 days; for each group, the tumors were dissected at an end of the experiment and weighed on the balance, with weights recorded. According to a formula that a tumor growth inhibition rate=(an average weight of the tumors of the physiological saline group−an average weight of the tumors of the drug administrated groups)/the average weight of the tumors of the physiological saline group, the inhibition rate of the rLZ-8 upon the growth of the orthotopic tumor was calculated.

## CN(C)/N=N/c1[nH]cnc1C(N)=O [DTIC, Dacarbazine, reference compound]
B16F10 orthotopic tumor; [1]
  Tumor volume: 0.19 ± 0.09** mm^3
  Tumor weight: 0.23 ± 0.12 g
B16F10 orthotopic tumor; DTIC 2.5 mg/kg, administration for 28 days
  Tumor growth inhibition rate: 81.26 ± 0.27^ %
B16F10 orthotopic tumor; [2]
  Tumor growth inhibition rate: 64.42 ± 0.41^ %
  Tumor volume: 0.73 ± 0.21* mm^3
  Tumor weight: 0.87 ± 0.26 g
B16F10 orthotopic tumor; [3]
  Mortality rate (administration for 28 days): 0/10
  Mortality rate (administration for 56 days): 4/10
B16F10 orthotopic tumor; tumor-bearing mice, tail vein blood, anti-tumor treatment experiment (28/56 days)
  Body leukocyte number: greatly decreased the body leukocyte number
B16-F10 lung metastases; 87th / 95th day after injecting the tumors
  Survival rate when all mice of the negative contrast group were dead: 10%
B16-F10 lung metastases; administration for 28 days
  Tumor metastases inhibition rate: 32.04±1.27%
B16-F10 lung metastases; administration for 56 days
  Tumor metastases inhibition rate: 58.43 ± 3.21%

## ipilimumab: anti-CTLA-4 antibody, immune therapy for metastatic melanoma
Metastatic melanoma
  Positive reaction rate: about 10.9%
